Earlier results, collected in PubChem BioAssay AID1259409 (Chemical Carcinogenesis Research Information System (CCRIS), 2018).

System: rodent chemically induced tumor inhibition, incidence and multiplicity
Experiment: CCRIS tumor inhibitor studies
Conditions: Dose [Inhibitor]: 0, Promoter: NONE USED

In the case of `COc1ccc(-c2coc3cc(O)cc(O)c3c2=O)cc1`, the “tumour outcome (control, treated, inhibition, significance)” value (Carcinogen: BENZO[A]PYRENE, 50-32-8, 0.125 MG IN 0.1 ML DMSO 3/WK FOR 6 WK AFTER WEANING (STUDY DURATION: 9 WK), Route [Inhibitor]: INTRAPERITONEAL, Species: MOUSE, Strain/Sex: SWISS WEBSTER/MALE, FEMALE, Target Tissue: Type of Lesion: LUNG: ADENOMA, Dose [Carcinogen]: 0.5 MG IN AQUEOUS GELATIN WITHIN 24 HRS AFTER BIRTH) is given as 20/35 (57%), 2/16 (13%), 77%, p<0.01, the “tumour outcome (control, treated, inhibition, significance)” value (Carcinogen: BENZO[A]PYRENE, 50-32-8, 0.125 MG IN 0.1 ML DMSO 3/WK FOR 6 WK AFTER WEANING (STUDY DURATION: 9 WK), Route [Inhibitor]: INTRAPERITONEAL, Species: MOUSE, Strain/Sex: SWISS/FEMALE, Target Tissue: Type of Lesion: LUNG: ADENOMA, Dose [Carcinogen]: 0.5 MG IN 1% AQUEOUS GELATIN TO 24 HR OLD MICE ONCE) is given as 11/19 (58%), 2/16 (13%), 78%, p<0.01 and the “tumour outcome (control, treated, inhibition, significance)” value (Carcinogen: BENZO[A]PYRENE, 50-32-8, 500 MG/KG IN 0.1 ML DMSO 2 D PRIOR TO EACH CARCINOGEN DOSE 1/WK FOR 4 WK (STUDY DURATION: 30 WK), Route [Inhibitor]: GAVAGE, Species: MOUSE, Strain/Sex: SWISS/FEMALE, Target Tissue: Type of Lesion: FORESTOMACH: CARCINOMA, Dose [Carcinogen]: 3 MG IN 0.2 ML CORN OIL 1/WK FOR 4 WK) is given as 13/26 (50%), 4/24 (17%), 66%, p<0.02. The “tumour outcome (control, treated, inhibition, significance)” value (Carcinogen: BENZO[A]PYRENE, 50-32-8, 500 MG/KG IN 0.1 ML DMSO 2 D PRIOR TO EACH CARCINOGEN DOSE 1/WK FOR 4 WK (STUDY DURATION: 30 WK), Route [Inhibitor]: GAVAGE, Species: MOUSE, Strain/Sex: SWISS/FEMALE, Target Tissue: Type of Lesion: FORESTOMACH: PAPILLOMA, Dose [Carcinogen]: 3 MG IN 0.2 ML CORN OIL 1/WK FOR 4 WK) was 25/26 (96%), 21/24 (88%), 8%, not calculated, the “tumour outcome (control, treated, inhibition, significance)” value (Carcinogen: BENZO[A]PYRENE, 50-32-8, 500 MG/KG IN 0.1 ML DMSO 2 D PRIOR TO EACH CARCINOGEN DOSE 1/WK FOR 4 WK (STUDY DURATION: 30 WK), Route [Inhibitor]: GAVAGE, Species: MOUSE, Strain/Sex: SWISS/FEMALE, Target Tissue: Type of Lesion: LUNG: ADENOMA, Dose [Carcinogen]: 3 MG IN 0.2 ML CORN OIL 1/WK FOR 4/WK) was 24/26 (92%), 20/24 (83%), 10%, not calculated and the “tumour outcome (control, treated, inhibition, significance)” value (Carcinogen: N-METHYL-N-NITROSOUREA, 684-93-5, 10 MG/KG IN DIET FOR DURATION OF STUDY BEGINNING POST CARCINOGEN DOSE (STUDY DURATION: 18 WK), Route [Inhibitor]: ORAL, Species: RAT, Strain/Sex: SPRAGUE-DAWLEY/FEMALE, Target Tissue: Type of Lesion: MAMMARY GLAND: TUMOR, Dose [Carcinogen]: 40 MG/KG BW ONCE) was 16/20 (80%), 11/19 (58%), 28%, not calculated. The “tumour outcome (control, treated, inhibition, significance)” value (Carcinogen: N-METHYL-N-NITROSOUREA, 684-93-5, 50 MG/KG IN DIET FOR DURATION OF STUDY BEGINNING POST CARCINOGEN DOSE (STUDY DURATION: 18 WK), Route [Inhibitor]: ORAL, Species: RAT, Strain/Sex: SPRAGUE-DAWLEY/FEMALE, Target Tissue: Type of Lesion: MAMMARY GLAND: TUMOR, Dose [Carcinogen]: 40 MG/KG BW ONCE) was 16/20 (80%), 6/19 (32%), 60%, p<0.01.
